Laboratory results from PubChem BioAssay (NCI).
Where “and” joins values, the source holds several entries; their conditions need not be identical. Equal entries are not always repeated.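 Cells were grown in 96-well plates and exposed to each compound for 48 hours at five concentrations; endpoints were interpolated linearly between bracketing concentrations, or set to the highest concentration if not reached. GI50 = concentration required for 50% inhibition of growth. Definition used: TGI = concentration required for complete inhibition of growth.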

What was measured:
Assay in all cases: NCI tumour cell line growth inhibition, 48 h
HOP-62 NSCLC = tested on: HOP-62 NSCLC
OVCAR-8 ovarian = tested on: OVCAR-8 ovarian
HL-60(TB) leukemia = tested on: HL-60(TB) leukemia
CCRF-CEM leukemia = tested on: CCRF-CEM leukemia
LOX IMVI melanoma = tested on: LOX IMVI melanoma
OVCAR-4 ovarian = tested on: OVCAR-4 ovarian
RXF 393 renal = tested on: RXF 393 renal
UACC-257 melanoma = tested on: UACC-257 melanoma
A498 renal = tested on: A498 renal
PC-3 prostate = tested on: PC-3 prostate

Structure (SMILES)	TGI (HOP-62 NSCLC)	TGI (OVCAR-8 ovarian)	TGI (HL-60(TB) leukemia) [µM]	TGI (CCRF-CEM leukemia)	TGI (LOX IMVI melanoma)	TGI (OVCAR-4 ovarian) [µM]	TGI (RXF 393 renal) [µM]	TGI (UACC-257 melanoma)	TGI (A498 renal) [µM]	TGI (PC-3 prostate) [µM]	GI50 (HOP-62 NSCLC)	GI50 (OVCAR-8 ovarian) [µM]	GI50 (HL-60(TB) leukemia) [µM]	GI50 (CCRF-CEM leukemia) [µM]	GI50 (PC-3 prostate) [µM]	GI50 (LOX IMVI melanoma) [µM]	GI50 (OVCAR-4 ovarian) [µM]	GI50 (RXF 393 renal) [µM]	GI50 (UACC-257 melanoma)	GI50 (A498 renal) [µM]
COC(=O)C(=Cc1cc(OC)ccc1OC)C(=O)OC	64.1 µM	> 100 µM	59.1	61.8 µM	50.1 µM	51.6	31.3	35.1 µM												
O=C(CCn1[nH]c(=O)c(Cl)c(Cl)c1=O)NO	> 100 µM	> 100 µM	> 100	> 100 µM	> 100 µM	> 100	> 100	> 100 µM	> 100											
C=C1C(=O)OC2CCN3CC=C(COC(=O)C(C)(O)C4(CO4)C1C)C23 (stereo unspecified)		> 100 µM		> 100 µM	> 100 µM	> 100	> 100	> 100 µM	> 100	> 100										
Cn1cc(CO)c2c1C(=O)C=C(N1CC1)C2=O	< 0.0116 µM	3.58 µM	18.1	11.2 µM	0.0184 µM	0.0917	0.914	0.0692 µM		0.128	< 0.01 µM	< 0.01	2.68	0.26	0.0153	< 0.01	0.0256	< 0.0305	0.0198 µM	
Cc1ccc(Cc2c(=O)[nH]nc3ccccc23)cc1	> 100 µM	> 100 µM		> 100 µM	> 100 µM	> 100		> 100 µM	> 100											
Cc1ccc(S(=O)(=O)N(CC(=O)O)c2ccccc2)cc1		> 100 µM	> 100	> 100 µM	> 100 µM	> 100	> 100	> 100 µM	> 100											
CC(C)c1ccccc1NC(=O)CCc1n[nH]c(=S)o1	> 100 µM	> 100 µM	> 89.2	> 100 µM	> 100 µM	> 100	> 100	> 100 µM	> 100											
CN(C)c1nc2ccccc2[nH]1	> 100 µM	> 100 µM	> 100	> 100 µM	> 100 µM	> 100	> 100	> 100 µM												
Cn1c2c(c3ccccc31)C1CCCCCCC1C1C(=O)OC(=O)C21 (stereo unspecified)		> 100 µM	63.1	59 µM	51.2 µM	> 100	49		> 100											
CCOc1ccccc1C=C1c2ccccc2C(=O)c2ccccc21	36.3 µM	43 µM	8.46	35.5 µM	> 100 µM	> 100	5.96	47 µM	> 100											
CC1=C(C(=O)Nc2ccccc2)C(c2ccccc2)C(C(=O)Nc2ccccc2)=C(C)N1	> 100 µM	> 100 µM	> 100			> 100	> 100	> 100 µM	> 100											
O/N=C/C1C(OCc2ccccc2)C(OCc2ccccc2)C(OCc2ccccc2)CN1Cc1ccccc1 (stereo unspecified)	53.1 µM and > 100 µM	39.9 µM and > 100 µM	80.4	71.2 µM and > 100 µM	29.4 µM and > 100 µM	> 100	46.1	72.5 µM and 15.7 µM	> 100		17.8 µM and 45.4 µM								23.3 µM and 2.45 µM	
CN(C)c1ccc(C(C=C2c3ccccc3Sc3ccccc32)=C(C#N)C#N)cc1	> 100 µM	> 100 µM	> 100	> 100 µM	> 100 µM	50.1	> 100	> 100 µM	> 100											
O=C(O)CCC(=O)c1ccc[nH]1	> 100 µM	> 100 µM			> 100 µM	> 100	> 100	> 100 µM	> 100	> 100										
CC(C)c1ccc2c(c1)CC[C@@H]1[C@@](C)(C(=O)O)CCC[C@]21C	22.7 µM	7.87 µM	20.9		16.8 µM	10.8	0.727	3.86 µM		82.6	10.8 µM	2.16	3.4		7.62	3.43	4.23	0.0244	0.33 µM	
CN1CCN(CCOc2ccc(-c3cnc4c(-c5ccccc5F)cnn4c3)cc2)CC1	3.54 µM	10.6 µM		4.77 µM	3.27 µM	4.49	3.29	3.41 µM	2.9		1.7 µM	2.92		1.85		1.81	1.55	1.72	1.87 µM	1.43
O=S1(=O)C[C@H](O)[C@H](O)CS1	> 100 µM	> 100 µM	> 100		> 100 µM	> 100	> 100	> 100 µM	> 100											
Cc1ccc(NC(=O)C(=O)C(C(=O)c2ccc3ccccc3c2)C2OC(=O)c3ccccc32)cc1C (stereo unspecified)	35.7 µM	66.2 µM	44.9	51.3 µM	32.8 µM	40.6		42.4 µM	31											
COc1ccc(C(=O)C(c2ccc(OC)cc2)C2(O)C(=O)Nc3ccc([N+](=O)[O-])cc32)cc1 (stereo unspecified)	> 100 µM	> 100 µM	> 100	> 100 µM		> 100	> 100	> 100 µM	31.5											
Cc1cc(CC(O)c2ccc(Cl)c(Cl)c2)nc(=O)[nH]1 (stereo unspecified)	86.5 µM	> 100 µM	> 100	> 100 µM		> 100		> 100 µM	> 100											
COC(=O)C1=C(O)c2cc(OC)c(OC)cc2C(c2ccc(OC)c(OC)c2)C1 (stereo unspecified)	> 100 µM	> 100 µM	> 100	> 100 µM	> 100 µM	> 100	> 100	> 100 µM	98.2											
COc1cnc2c(c1)C(=O)c1c-2n(CCCNC(C)C)c(=O)c2cc(Cl)ccc12	1.53 µM	2.13 µM	1.69	1.06 µM		2.7	2.01	32.8 µM	5.27	2.57	0.0709 µM	0.286	0.3	0.0419	0.948		1.04	0.568	12.1 µM	0.334
